Measurements: paper PMC11046380 (2024)

Experiments:
[1] = test system: BMAA_159_min (FAM-labeled) (DNA, aptamer) GGCTCGGCCCTGGGTGAGGGGCGCAGTGGGGTGTAGCCAG; assay: BMAA-conjugated plate fluorescence assay; settings: 100 mM NaCl, 5 mM MgCl2, 20 mM Tris pH 7.6, room temperature, immobilised compound on streptavidin plate
[2] = test system: BMAA_165_min (FAM-labeled) (DNA, aptamer) GGGCGTGTGTGGGAGGGGGCACTTCGTCGGGGTGAGCCAG; assay: BMAA-conjugated plate fluorescence assay; settings: 100 mM NaCl, 5 mM MgCl2, 20 mM Tris pH 7.6, room temperature, immobilised compound on streptavidin plate
[3] = test system: BMAA_165_min (biosensing) (DNA, aptamer) GGGCGTGTGTGGGAGGGGGCACTTCGTCGGGGTG; assay: electrochemical aptamer sensor (SWV, EIS); settings: 4 mM NaCl, 0.2 mM MgCl2
[4] = test system: BMAA_165_scrambled (DNA, aptamer) TGTACCGTCTGAGCGATTCGTACAGTCGTTGGGGGGGGGGGTGAGCGTTGCGCGCGTAGCCAGTCAGTGTTAAGGAGTGC; assay: SYBR Green I fluorescence displacement; settings: 100 mM NaCl, 5 mM MgCl2; 20 mM Tris pH 7.6, room temperature; SYBR Green I displaced; up to 25 μM BMAA
[5] = test system: BMAA_165_min (DNA, aptamer) GGGCGTGTGTGGGAGGGGGCACTTCGTCGGGGTGAGCCAG; assay: 1H NMR titration; settings: 100 mM NaCl, 2 mM MgCl2; 20 mM sodium phosphate, 10% D2O, 298 K; qualitative
[6] = test system: BMAA_159_min (DNA, aptamer) GGCTCGGCCCTGGGTGAGGGGCGCAGTGGGGTGTAGCCAG; assay: 1H NMR titration; settings: 100 mM NaCl, 2 mM MgCl2; 20 mM sodium phosphate, 10% D2O, 298 K; qualitative
[7] = test system: BMAA_38 (DNA, aptamer) TGTACCGTCTGAGCGATTCGTACGGGGGTTCACGCTCGAGGGGGCCACAGGGGGAGTAGCCAGTCAGTGTTAAGGAGTGC; assay: SYBR Green I fluorescence displacement; settings: 100 mM NaCl, 5 mM MgCl2, 20 mM Tris pH 7.6, room temperature, four of five candidates bind, not named
[8] = test system: BMAA_172 (DNA, aptamer) TGTACCGTCTGAGCGATTCGTACGGGGGCCAGTGAATGAGTTGGGGTGGTAATGGGGAGCCAGTCAGTGTTAAGGAGTGC; assay: SYBR Green I fluorescence displacement; settings: 100 mM NaCl, 5 mM MgCl2, 20 mM Tris pH 7.6, room temperature, four of five candidates bind, not named
[9] = test system: BMAA_165 (DNA, aptamer) TGTACCGTCTGAGCGATTCGTACGGGCGTGTGTGGGAGGGGGCACTTCGTCGGGGTGAGCCAGTCAGTGTTAAGGAGTGC; assay: SYBR Green I fluorescence displacement; settings: 100 mM NaCl, 5 mM MgCl2; 20 mM Tris pH 7.6, room temperature; SYBR Green I displaced; one-site fit
[10] = test system: BMAA_159_min (DNA, aptamer) GGCTCGGCCCTGGGTGAGGGGCGCAGTGGGGTGTAGCCAG; assay: circular dichroism; settings: 100 mM NaCl (100 mM KCl in legend), 5 mM MgCl2; 20 mM Tris pH 7.6, room temperature; qualitative
[11] = test system: BMAA_159 (DNA, aptamer) TGTACCGTCTGAGCGATTCGTACGGCTCGGCCCTGGGTGAGGGGCGCAGTGGGGTGTAGCCAGTCAGTGTTAAGGAGTGC; assay: SYBR Green I fluorescence displacement; settings: 100 mM NaCl, 5 mM MgCl2; 20 mM Tris pH 7.6, room temperature; SYBR Green I displaced; one-site fit

apparent Kd [1] | apparent Kd [2] | binding [3] | binding [4] | binding [5] | binding [6] | apparent Kd [7] | apparent Kd [8] | Kd [9] | binding [10] | Kd [11] | SMILES
6000 ± 1000 nM | 630 ± 20 nM |  |  |  |  |  |  |  |  |  | CNCC(NC(=O)CCOCCOCCOCCOCCNC(=O)CCCC[C@@H]1SC[C@@H]2NC(=O)N[C@@H]21)C(=O)O (some centres unmarked)
 |  | yes | no | yes | yes | 18.6 (3.08-102) uM | 6.50 (5.23-9.56) uM | 320 ± 20 nM | yes | 2200 ± 100 nM | CNC[C@H](N)C(=O)O
